Measurements as given in ChEMBL document CHEMBL3885861, “Open TG-GATES”.

Species: Rattus norvegicus
Test: Open TG-GATES - Regimen: Single
Format: toxicity, organism-based, Sprague-Dawley
Design: regimen Single, gender Male, age 6 weeks
Conditions: in vivo, po, 0 mg/kg, route gavage, dose level Control; for APTT / Bas / Eos / Fbg / Hb / Ht / Lym / MCH / MCHC / MCV / Mono / Neu / PT / Plat / RBC / Ret / WBC: tissue Blood; for KIDNEY_L / KIDNEY_R / KIDNEY_TOTAL: tissue Kidney; for LIVER: tissue Liver; for A/G / ALP / ALT / AST / BUN / CRE / Ca / Cl / DBIL / GLC / IP / K / LDH / Na / PL / RALB / TBIL / TC / TG / TP / gamma-GTP: tissue Plasma

Work on `CCCCNC(=O)NS(=O)(=O)c1ccc(C)cc1` [TOLBUTAMIDE] yielded a TERMINAL_BW (3 h) of 203.9 g, an APTT (3 h) of 16.5 s and a Bas (3 h) of 0%. For the same compound, the Eos (3 h) was 0.8%, the Fbg (3 h) was 286.6 mg/dL and the Hb (3 h) was 13.7 g/dL. The Ht (3 h) was 42.1%, the Lym (3 h) was 78.2% and the MCH (3 h) was 21 pg. For the same compound, the MCHC (3 h) was 32.5%, the MCV (3 h) was 64.8 fL and the Mono (3 h) was 2.8%. For the same compound, the Neu (3 h) was 18%, the PT (3 h) was 12.9 s and the Plat (3 h) was 128.5 x10_4/uL. For the same compound, the RBC (3 h) was 649.4 x10_4/ul, the Ret (3 h) was 8.5% and the WBC (3 h) was 86 x10_2/uL. The KIDNEY_L (3 h) was 0.9 g, the KIDNEY_R (3 h) was 0.9 g and the KIDNEY_TOTAL (3 h) was 1.8 g. It also gave an LIVER (3 h) of 9.1 g, an A/G (3 h) of 0.9 and an ALP (3 h) of 1445.2 IU/L. It also gave an ALT (3 h) of 43.8 IU/L, an AST (3 h) of 73.6 IU/L and a BUN (3 h) of 9.8 mg/dL. It also gave a CRE (3 h) of 0.2 mg/dL, a Ca (3 h) of 11 mg/dL and a Cl (3 h) of 106.8 meq/L. The DBIL (3 h) was 0.006 mg/dL, the GLC (3 h) was 175 mg/dL and the IP (3 h) was 8.9 mg/dL. The K (3 h) was 4.1 meq/L, the LDH (3 h) was 52.4 IU/L and the Na (3 h) was 141.6 meq/L. For the same compound, the PL (3 h) was 145 mg/dL, the RALB (3 h) was 2.5 g/dL and the TBIL (3 h) was 0.078 mg/dL. The TC (3 h) was 80.8 mg/dL, the TG (3 h) was 54.6 mg/dL and the TP (3 h) was 5.3 g/dL. It also gave a gamma-GTP (3 h) of 1 IU/L, a TERMINAL_BW (6 h) of 204 g and an APTT (6 h) of 18.7 s. The Bas (6 h) was 0.2%, the Eos (6 h) was 1% and the Fbg (6 h) was 279.6 mg/dL. It also gave a Hb (6 h) of 13.6 g/dL, a Ht (6 h) of 41.9% and a Lym (6 h) of 80.4%. It also gave an MCH (6 h) of 20.6 pg, an MCHC (6 h) of 32.5% and an MCV (6 h) of 63.6 fL. The Mono (6 h) was 2%, the Neu (6 h) was 15.8% and the PT (6 h) was 13.1 s. For the same compound, the Plat (6 h) was 131.1 x10_4/uL, the RBC (6 h) was 659.4 x10_4/ul and the Ret (6 h) was 8.1%. For the same compound, the WBC (6 h) was 84.4 x10_2/uL, the KIDNEY_L (6 h) was 0.9 g and the KIDNEY_R (6 h) was 0.9 g. It also gave a KIDNEY_TOTAL (6 h) of 1.9 g, an LIVER (6 h) of 8.8 g and an A/G (6 h) of 0.9. It also gave an ALP (6 h) of 1197.4 IU/L, an ALT (6 h) of 36.6 IU/L and an AST (6 h) of 66.4 IU/L. For the same compound, the BUN (6 h) was 8.4 mg/dL, the CRE (6 h) was 0.2 mg/dL and the Ca (6 h) was 10.7 mg/dL. It also gave a Cl (6 h) of 105.6 meq/L, a DBIL (6 h) of 0.01 mg/dL and a GLC (6 h) of 172.6 mg/dL. It also gave an IP (6 h) of 9.5 mg/dL, a K (6 h) of 4.1 meq/L and an LDH (6 h) of 49 IU/L. The Na (6 h) was 141.2 meq/L, the PL (6 h) was 138.4 mg/dL and the RALB (6 h) was 2.5 g/dL. The TBIL (6 h) was 0.078 mg/dL, the TC (6 h) was 78.8 mg/dL and the TG (6 h) was 46.6 mg/dL. It also gave a TP (6 h) of 5.2 g/dL, a gamma-GTP (6 h) of 1 IU/L and a TERMINAL_BW (9 h) of 202.2 g. It also gave an APTT (9 h) of 15.8 s, a Bas (9 h) of 0.2% and an Eos (9 h) of 1.2%. It also gave a Fbg (9 h) of 284 mg/dL, a Hb (9 h) of 13.3 g/dL and a Ht (9 h) of 40.1%. It also gave a Lym (9 h) of 75.6%, an MCH (9 h) of 21 pg and an MCHC (9 h) of 33%. It also gave an MCV (9 h) of 63.6 fL, a Mono (9 h) of 2% and a Neu (9 h) of 20.8%. The PT (9 h) was 13.3 s, the Plat (9 h) was 121 x10_4/uL and the RBC (9 h) was 633 x10_4/ul. It also gave a Ret (9 h) of 8.3%, a WBC (9 h) of 72.5 x10_2/uL and a KIDNEY_L (9 h) of 0.9 g. It also gave a KIDNEY_R (9 h) of 1 g, a KIDNEY_TOTAL (9 h) of 1.9 g and an LIVER (9 h) of 7.9 g. For the same compound, the A/G (9 h) was 0.9, the ALP (9 h) was 1161.6 IU/L and the ALT (9 h) was 38.6 IU/L. For the same compound, the AST (9 h) was 73.8 IU/L, the BUN (9 h) was 7.6 mg/dL and the CRE (9 h) was 0.1 mg/dL. The Ca (9 h) was 10.7 mg/dL, the Cl (9 h) was 106.2 meq/L and the DBIL (9 h) was 0 mg/dL. The GLC (9 h) was 166.8 mg/dL, the IP (9 h) was 9.4 mg/dL and the K (9 h) was 4.3 meq/L. It also gave an LDH (9 h) of 60.8 IU/L, a Na (9 h) of 141 meq/L and a PL (9 h) of 132.8 mg/dL. For the same compound, the RALB (9 h) was 2.5 g/dL, the TBIL (9 h) was 0.078 mg/dL and the TC (9 h) was 78.4 mg/dL. The TG (9 h) was 33.2 mg/dL, the TP (9 h) was 5.2 g/dL and the gamma-GTP (9 h) was 1 IU/L. It also gave a TERMINAL_BW (24 h) of 220 g, an APTT (24 h) of 17.4 s and a Bas (24 h) of 0.2%. The Eos (24 h) was 1.2%, the Fbg (24 h) was 296 mg/dL and the Hb (24 h) was 13.3 g/dL. For the same compound, the Ht (24 h) was 40.5%, the Lym (24 h) was 74.2% and the MCH (24 h) was 21.3 pg. For the same compound, the MCHC (24 h) was 32.9%, the MCV (24 h) was 64.9 fL and the Mono (24 h) was 3%. For the same compound, the Neu (24 h) was 20.4%, the PT (24 h) was 12.9 s and the Plat (24 h) was 123.6 x10_4/uL. For the same compound, the RBC (24 h) was 624.8 x10_4/ul, the Ret (24 h) was 7.7% and the WBC (24 h) was 89 x10_2/uL. The KIDNEY_L (24 h) was 1 g, the KIDNEY_R (24 h) was 1 g and the KIDNEY_TOTAL (24 h) was 2 g. For the same compound, the LIVER (24 h) was 10.3 g, the A/G (24 h) was 0.9 and the ALP (24 h) was 1544.6 IU/L. It also gave an ALT (24 h) of 44.6 IU/L, an AST (24 h) of 67 IU/L and a BUN (24 h) of 15.2 mg/dL. The CRE (24 h) was 0.2 mg/dL, the Ca (24 h) was 11.2 mg/dL and the Cl (24 h) was 104.8 meq/L. For the same compound, the DBIL (24 h) was 0.01 mg/dL, the GLC (24 h) was 171.2 mg/dL and the IP (24 h) was 8.3 mg/dL. It also gave a K (24 h) of 4 meq/L, an LDH (24 h) of 78 IU/L and a Na (24 h) of 141.6 meq/L. The PL (24 h) was 162.4 mg/dL, the RALB (24 h) was 2.6 g/dL and the TBIL (24 h) was 0.066 mg/dL. For the same compound, the TC (24 h) was 89.8 mg/dL, the TG (24 h) was 85.4 mg/dL and the TP (24 h) was 5.6 g/dL. It also gave a gamma-GTP (24 h) of 1.2 IU/L.
